These are literature values, as cited in patent US7422793B2, “Non-toxic corrosion-protection rinses and seals based on rare earth elements” (University of Dayton, priority 2002, dated 2008).

Converted amounts (≈) assume the structure as drawn. Like-named read-outs stand apart in the source and are kept apart here.

The conditions of this data set: cited from earlier work.
Where [1] appears, read: fluoride preparative agents, at or near 25° C. and at or near pH 7.

As for `[F][Sb-]([F])([F])([F])([F])[F].[NH4+]` [Ammonium fluoroantimonate], the “Solubility in Water” value (pH 7) is given as 4.7 × 10^0 mole/L.

Turning to `F[Si-2](F)(F)(F)(F)F.[NH4+].[NH4+]` [Ammonium hexafluorosilicate], the “Solubility in Water” value (pH 7) is listed as 1.04 × 10^0 mole/L.

`[F][Sb]([F])([F])([F])[F]` [Antimony (V) fluoride]: the “Solubility in Water” value (pH 7) is 1 × 10^0 mole/L.

Regarding `O=[As](=O)O[As](=O)=O` [Arsenic pentoxide], the “Solubility in Water” value (pH 7) was 6.5 × 10^0 mole/L.

Regarding `[O-][Cl+3]([O-])([O-])[O-].[O]=[Bi+]` [Bismuthyl perchlorate], for the setting “pH 7”, the “Solubility in Water” value was 0.1 mol/L.

For `[Ca+2].[O-][Cl+2]([O-])[O-].[O-][Cl+2]([O-])[O-]` [Calcium chlorate], the “Solubility in Water” value (pH 7) is 7.4 × 10^0 mole/L.

With `F[Si-2](F)(F)(F)(F)F.[Ca+2]` [Calcium hexafluorosilicate], under “pH 7”, the “Solubility in Water” value is 0.5 mol/L.

As for `[Ca+2].[O-][Cl+3]([O-])([O-])[O-].[O-][Cl+3]([O-])([O-])[O-]` [Calcium perchlorate], for the setting “pH 7”, the “Solubility in Water” value was 7.9 × 10^0 mole/L.

With `[Ce+3].[O-][Cl+3]([O-])([O-])[O-].[O-][Cl+3]([O-])([O-])[O-].[O-][Cl+3]([O-])([O-])[O-]` [Cerium (III) perchlorate], under “pH 7”, the “Solubility in Water” value is given as 2.0 × 10^0 mole/L.

On to `[Ce+4].[O-][Cl+3]([O-])([O-])[O-].[O-][Cl+3]([O-])([O-])[O-].[O-][Cl+3]([O-])([O-])[O-].[O-][Cl+3]([O-])([O-])[O-]` [Cerium (IV) perchlorate], for which the “Solubility in Water” value (pH 7) is 1.0 × 10^0 mole/L.

As for `[Cs+].[O-][Cl+2]([O-])[O-]` [Cesium chlorate], the “Solubility in Water” value (pH 7) is 0.29 mol/L.

Turning to `[Cs+].[Cs+].[F][Nb-2]([F])([F])([F])([F])([F])[F]` [Cesium heptafluoroniobate], the “Solubility in Water” value (pH 7) is 0.3 mol/L.

Take `[Cs+].[Cs+].[F][Ta-2]([F])([F])([F])([F])([F])[F]` [Cesium heptafluorotantalate]: the “Solubility in Water” value (pH 7) was 0.3 mol/L.

For the compound `[Cs+].[Cs+].[F][Ge-2]([F])([F])([F])([F])[F]` [Cesium hexafluorogermanate], the “Solubility in Water” value (pH 7) was […].

For the compound `[Cs+].[Cs+].[F][Hf-2]([F])([F])([F])([F])[F]` [Cesium hexafluorohafnate], the “Solubility in Water” value (pH 7) is 0.17 mol/L.

`[Cs+].[Cs+].[F][Sn-2]([F])([F])([F])([F])[F]` [Cesium hexafluorostannate]: the “Solubility in Water” value (pH 7) is 0.079 mol/L.

On to `[Cs+].[Cs+].[F][Ti-2]([F])([F])([F])([F])[F]` [Cesium hexafluorotitanate], for which the “Solubility in Water” value (pH 7) was 0.055 mol/L.

As for `[Cs+].[Cs+].[F][Zr-2]([F])([F])([F])([F])[F]` [Cesium hexafluorozirconate], under “pH 7”, the “Solubility in Water” value is 0.112 mol/L.

As for `[Cs+].[Cs+].[O]=[Mo](=[O])([O-])[O-]` [Cesium molybdate], the “Solubility in Water” value (pH 7) is on record as 4.8 × 10^0 mole/L.

Consider `[Cs+].[O-][Cl+3]([O-])([O-])[O-]` [Cesium perchlorate], for which, where the note is “pH 7”, the “Solubility in Water” value is 0.086 mol/L.

With `[Cs+].[O-][I+3]([O-])([O-])[O-]` [Cesium periodate], for the setting “pH 7”, the “Solubility in Water” value was 0.066 mol/L.

Consider `[Cs+].[Cs+].[O]=[Sn]([O-])[O-]` [Cesium stannate], for which, for the setting “pH 7”, the “Solubility in Water” value is reported as 1 × 10^0 mole/L.

Turning to `O=[Te](=O)([O-])[O-].[Cs+].[Cs+]` [Cesium tellurate], the “Solubility in Water” value (pH 7) was 0.01 mol/L.

With `[Cs+].[O]=[V](=[O])[O-]` [Cesium vanadate], under “pH 7”, the “Solubility in Water” value is 0.5 mol/L.

Regarding `CC[N+](CC)(CC)CC.[O-][Cl+3]([O-])([O-])[O-]` [Et4N^+ perchlorate], the “Solubility in Water” value (pH 7) was 0.5 mol/L.

As for `OO` [Hydrogen peroxide], the “Solubility in Water” value (oxidizer sources, at or near 25° C. and at or near pH 7) is 60 wt. %.

On to `[O-][I+2]([O-])O[I+2]([O-])[O-]` [Iodine pentoxide], for which the “Solubility in Water” value (pH 7) is on record as 5.6 × 10^0 mole/L.

`[Li+].[O-][Cl+2]([O-])[O-]` [Lithium chlorate]: for the setting “pH 7”, the “Solubility in Water” value is 55 mol/L.

`[F][Nb-2]([F])([F])([F])([F])([F])[F].[Li+].[Li+]` [Lithium heptafluoroniobate]: under “pH 7”, the “Solubility in Water” value was 0.5 mol/L.

With `[F][Ta-2]([F])([F])([F])([F])([F])[F].[Li+].[Li+]` [Lithium heptafluorotantalate], the “Solubility in Water” value (pH 7) is 0.5 mol/L.

Take `[F][Sb-]([F])([F])([F])([F])[F].[Li+]` [Lithium hexafluoroantimonate]: the “Solubility in Water” value (pH 7) is on record as 1 × 10^0 mole/L.

Consider `[F][Ge-2]([F])([F])([F])([F])[F].[Li+].[Li+]` [Lithium hexafluorogermanate], for which the “Solubility in Water” value (pH 7) is […].

As for `[F][Hf-2]([F])([F])([F])([F])[F].[Li+].[Li+]` [Lithium hexafluorohafnate], the “Solubility in Water” value (pH 7) was 0.1 mol/L.

As to `F[Si-2](F)(F)(F)(F)F.[Li+].[Li+]` [Lithium hexafluorosilicate], the “Solubility in Water” value under setting [1] was 3.8 × 10^0 mole/L.

In the case of `[F][Sn-2]([F])([F])([F])([F])[F].[Li+].[Li+]` [Lithium hexafluorostannate], the “Solubility in Water” value (pH 7) is 0.01 mol/L.

In the case of `[F][Ti-2]([F])([F])([F])([F])[F].[Li+].[Li+]` [Lithium hexafluorotitanate], for the setting “pH 7”, the “Solubility in Water” value was 0.05 mol/L.

On to `[F-].[F-].[F][Zr]([F])([F])[F].[Li+].[Li+]` [Lithium hexafluorozirconate], for which the “Solubility in Water” value (pH 7) is 0.08 mol/L.

`[Li+].[Li+].[O]=[Mo](=[O])([O-])[O-]` [Lithium molybdate]: the “Solubility in Water” value (pH 7) is 10 mol/L.

As for `[Li+].[Nb+5].[O-2].[O-2].[O-2]` [Lithium niobate], the “Solubility in Water” value (pH 7) is 0.1 mol/L.

With `O=N[O-].[Li+]` [Lithium nitrite], under “pH 7”, the “Solubility in Water” value was 28 mol/L.

Take `[Li+].[O-][Cl+3]([O-])([O-])[O-]` [Lithium perchlorate]: where the note is “pH 7”, the “Solubility in Water” value is reported as 5.6 × 10^0 mole/L.

With `[Li+].[Li+].[O-][O-]` [Lithium peroxide], where the note is “pH 7”, the “Solubility in Water” value is 1 × 10^0 mole/L.

With `[Li+].[Li+].[O]=[Sn]([O-])[O-]` [Lithium stannate], the “Solubility in Water” value (pH 7) was 5 × 10^0 mole/L.

With `[Li+].[O]=[Ta](=[O])[O-]` [Lithium tantalate], the “Solubility in Water” value (pH 7) is 0.01 mol/L.

Take `O=[Te](=O)([O-])[O-].[Li+].[Li+]` [Lithium tellurate]: the “Solubility in Water” value (pH 7) is reported as 1 × 10^0 mole/L.

For the compound `F[B-](F)(F)F.[Li+]` [Lithium tetrafluoroborate], the “Solubility in Water” value (pH 7) was 5 × 10^0 mole/L.

In the case of `[Mg+2].[O-][Cl+2]([O-])[O-].[O-][Cl+2]([O-])[O-]` [Magnesium chlorate], under “pH 7”, the “Solubility in Water” value is given as 4.3 × 10^0 mole/L.

Turning to `F[Si-2](F)(F)(F)(F)F.[Mg+2]` [Magnesium hexafluorosilicate], under setting [1], the “Solubility in Water” value is 3.9 × 10^0 mole/L.

Consider `[Mg+2].[O]=[Mo](=[O])([O-])[O-]` [Magnesium molybdate], for which the “Solubility in Water” value (pH 7) was 0.74 mol/L.

Take `O=C([O-])c1ccccc1C(=O)O[O-].[Mg+2]` [Magnesium monoperoxyphthalate]: the “Solubility in Water” value (pH 7) was 10 mol/L.

On to `O=N[O-].O=N[O-].[Mg+2]` [Magnesium nitrite], for which the “Solubility in Water” value (pH 7) is given as 1 × 10^0 mole/L.

For `[Mg+2].[O-][Cl+3]([O-])([O-])[O-].[O-][Cl+3]([O-])([O-])[O-]` [Magnesium perchlorate], the “Solubility in Water” value (pH 7) was 4.4 × 10^0 mole/L.

Turning to `[O]=[Mo](=[O])([OH])[OH]` [Molybdic acid], under “pH 7”, the “Solubility in Water” value is 0.0074 mol/L.

Take `O=C(O)c1ccccc1C(=O)OO` [Monoperoxyphthalic acid]: where the note is “pH 7”, the “Solubility in Water” value was 10 mol/L (≈ 1820 mg/mL).

Take `[O-][Cl+3]([O-])([O-])O` [Perchloric acid]: the “Solubility in Water” value (pH 7) is recorded as 75 wt. %.

As for `[K+].[O]=[Al][O-]` [Potassium aluminate], under “pH 7”, the “Solubility in Water” value is 1 × 10^0 mole/L.

With `[F][Sb-]([F])([F])([F])([F])[F].[K+]` [Potassium fluoroantimonate], the “Solubility in Water” value (pH 7) was 3.7 × 10^0 mole/L.

Regarding `[F][Ge-2]([F])([F])([F])([F])[F].[K+].[K+]` [Potassium fluorogermanate], the “Solubility in Water” value (pH 7) is […].

With `[F][Nb-2]([F])([F])([F])([F])([F])[F].[K+].[K+]` [Potassium heptafluoroniobate], the “Solubility in Water” value (pH 7) was 0.26 mol/L.

`[F][Ta-2]([F])([F])([F])([F])([F])[F].[K+].[K+]` [Potassium heptafluorotantalate]: the “Solubility in Water” value (pH 7) is 0.3 mol/L.

Take `[F-].[F-].[F][Hf]([F])([F])[F].[K+].[K+]` [Potassium hexafluorohafnate]: the “Solubility in Water” value (pH 7) is 0.13 mol/L.

For `F[Si-2](F)(F)(F)(F)F.[K+].[K+]` [Potassium hexafluorosilicate], the “Solubility in Water” value under setting [1] was 0.0055 mol/L.

Take `[F-].[F-].[F-].[F-].[F-].[F-].[K+].[K+].[Sn+4]` [Potassium hexafluorostannate]: under “pH 7”, the “Solubility in Water” value is 0.128 mol/L.

With `[F][Ti-2]([F])([F])([F])([F])[F].[K+].[K+]` [Potassium hexafluorotitanate], under “pH 7”, the “Solubility in Water” value was 0.06 mol/L.

With `[F][Zr-2]([F])([F])([F])([F])[F].[K+].[K+]` [Potassium hexafluorozirconate], under “pH 7”, the “Solubility in Water” value was 0.0812 mol/L.

For the compound `[K+].[K+].[O]=[Mo](=[O])([O-])[O-]` [Potassium molybdate], the “Solubility in Water” value (pH 7) was 775 mol/L.

With `O=N[O-].[K+]` [Potassium nitrite], the “Solubility in Water” value (pH 7) was 35 mol/L.

Regarding `[K+].[O-][I+3]([O-])([O-])[O-]` [Potassium periodate], the “Solubility in Water” value (pH 7) is 0.029 mol/L.
